Where no end group is shown, it is not given here. [ ]: non-standard residue; d: D form. 5/6‑FAM = fluorescein
Columns and labels:
Hs_FPR2 [1] = target: T1, Hs_FPR2 (Homo sapiens, UniProt P25090); assay: Competition binding of fluorescent WKYMVm, flow cytometry
T1 construct: expressed in transfected cells
T1 sequence (P25090 1-351): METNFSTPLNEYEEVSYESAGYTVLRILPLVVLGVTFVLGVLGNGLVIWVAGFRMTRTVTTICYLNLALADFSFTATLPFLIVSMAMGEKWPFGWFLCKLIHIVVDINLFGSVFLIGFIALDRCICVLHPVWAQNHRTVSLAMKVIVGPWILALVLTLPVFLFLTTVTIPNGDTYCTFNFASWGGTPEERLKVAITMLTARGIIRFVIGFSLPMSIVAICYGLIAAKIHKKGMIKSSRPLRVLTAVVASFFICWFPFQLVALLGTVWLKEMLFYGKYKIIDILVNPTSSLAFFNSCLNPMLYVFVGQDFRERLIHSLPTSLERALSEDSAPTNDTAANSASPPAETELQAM
Method: (§1) Mean cell fluorescence was then measured for 5000 cells by flow cytometry using either a BD FACScalibur or BD Attune.
(§2) All data were analyzed using GraphPad Prism using the nonlinear regression log(agonist) versus response (3 parameters) function for all assays, except binding, which was analyzed using the One site-FitlogIC50 function. Bias calculations were carried out following IUPHAR guidelines as described,[27]^,[37] and data were presented as the Δ Activity ratio (Log[EmaxB/EC50B])-(Log[EmaxA/EC50A]).

Mm_Fpr1 [2] = target: T2, Mm_Fpr1 (Mus musculus, UniProt P33766); assay: as above
T2 construct: expressed in transfected cells
T2 sequence (P33766 1-364): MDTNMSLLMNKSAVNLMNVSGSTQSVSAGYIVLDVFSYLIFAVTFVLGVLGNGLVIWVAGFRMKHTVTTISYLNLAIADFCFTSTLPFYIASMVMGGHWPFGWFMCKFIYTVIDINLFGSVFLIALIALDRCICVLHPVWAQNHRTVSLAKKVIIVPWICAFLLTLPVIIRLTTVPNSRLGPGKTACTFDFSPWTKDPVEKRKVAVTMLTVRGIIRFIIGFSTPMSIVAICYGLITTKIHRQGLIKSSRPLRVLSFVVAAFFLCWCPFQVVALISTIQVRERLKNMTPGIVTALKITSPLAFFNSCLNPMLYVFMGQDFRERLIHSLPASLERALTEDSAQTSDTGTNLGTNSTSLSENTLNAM
Method: as §1, §2

Hs_FPR2 [3] = target: T1, Hs_FPR2; assay: BRET receptor-RLuc8 interaction with Venus-mGsi; assay type: cell-based
Method: (§3) BRET1 assays to measure FPR interaction with Venus-mGsi and Arrestin 3-yellow fluorescent protein (YFP) were performed as previously described.[31]^,[32] Briefly, all FPRs C-terminally fused to Renilla Luciferase (donor, RLuc8) were transiently transfected along with either Venus-mGsi or YFP-Arrestin 3 (acceptor) at a ratio of 1:4. 24 hours post transfection, cells were replated into white-walled, 96-well plates and cultured for a further 24–48 hours. On the day of experimentation, growth media was aspirated and replaced with 80 μl Hanks Buffered Saline Solution and equilibrated for 30 minutes. Coelenterazine h was added to each well to a final concentration of 5 μM for 5 minutes before the addition of each compound, and the plate was incubated for a further 10 minutes at 37 °C before being read on a ClarioStar Plus, with luminescence measured at 480/20 nm (donor) and 530/20 (acceptor). The BRET ratio (acceptor/donor) was determined, and the background (untreated) subtracted to give the N-BRET value.
as §2

Mm_Fpr1 [4] = target: T2, Mm_Fpr1; assay: BRET receptor-RLuc8 interaction with Venus-mGsi; assay type: cell-based
Method: as §3, §2

Mm_Fpr2 [5] = target: T3, Mm_Fpr2 (Mus musculus, UniProt O88536); assay: BRET receptor-RLuc8 interaction with Venus-mGsi; assay type: cell-based
T3 construct: expressed in transfected cells
T3 sequence (O88536 1-351): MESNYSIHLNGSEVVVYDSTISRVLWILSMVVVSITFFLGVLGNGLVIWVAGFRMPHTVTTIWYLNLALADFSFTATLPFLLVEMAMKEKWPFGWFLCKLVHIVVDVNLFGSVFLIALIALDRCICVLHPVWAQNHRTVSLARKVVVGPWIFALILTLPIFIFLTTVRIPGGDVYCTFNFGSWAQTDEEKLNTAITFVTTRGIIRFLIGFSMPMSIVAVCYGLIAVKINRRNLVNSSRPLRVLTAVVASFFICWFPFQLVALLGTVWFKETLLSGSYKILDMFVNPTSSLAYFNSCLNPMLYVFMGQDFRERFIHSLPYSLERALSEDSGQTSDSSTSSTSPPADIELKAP
Method: as §3, §2

Hs_FPR2 [6] = target: T1, Hs_FPR2; assay: ERK1/2 phosphorylation by Western blotting; assay type: cell-based
Method: (§4) ERK phosphorylation was detected by Western blotting as previously described.[30] Briefly, HEK293 cells stably expressing FLAG-tagged FPRs were plated into 12-well culture plates until 90% confluent. On the day of the experiment, culture media was replaced with serum-free Dulbecco’s modified Eagle’s medium and incubated for 2 hours before stimulation with the indicated compounds. After 7 minutes, the media was removed and stimulation terminated by the addition of 100 μl sample buffer (0.5% SDS, Tris (pH 6.8), glycerol, at >90 °C).
as §2

Mm_Fpr1 [7] = target: T2, Mm_Fpr1; assay: ERK1/2 phosphorylation by Western blotting; assay type: cell-based
Method: as §4, §2

Mm_Fpr1 [8] = target: T2, Mm_Fpr1; assay: BRET receptor-RLuc8 interaction with Arrestin 3-YFP; assay type: cell-based
Method: as §3, §2

Mm_Fpr2 [9] = target: T3, Mm_Fpr2; assay: as above; assay type: cell-based
Method: as §3, §2

Hs_FPR2 [10] = target: T1, Hs_FPR2; assay: Internalization of FLAG-tagged receptors by flow cytometry; assay type: cell-based; design: Emax: dose or concentration left out as unconfirmed
Method: Internalization of FPRs was measured by flow cytometry.[30] Briefly, cells were incubated with Alexa Fluor 657 conjugated M1 antiflag antibody (Sigma-Aldrich Cat# F3040, RRID:AB_439712) for 30 minutes at 37 °C to label surface receptors. Cells were then incubated with the indicated concentration of ligand before washing in PBS/0.04% EDTA to remove any remaining surface antibody. Remaining fluorescence was then measured using flow cytometry on either a BD FACScalibur or Attune, recording 5000 gated events. […] As a control, some samples were left untreated, and “strip only” was measured as a readout of constitutive endocytosis, and this value was subtracted from the data.
as §2

Mm_Fpr1 [11] = target: T2, Mm_Fpr1; assay: as above; assay type: cell-based; design: Emax: dose or concentration left out as unconfirmed
Method: (§5) Internalization of FPRs was measured by flow cytometry.[30] Briefly, cells were incubated with Alexa Fluor 657 conjugated M1 antiflag antibody (Sigma-Aldrich Cat# F3040, RRID:AB_439712) for 30 minutes at 37 °C to label surface receptors. Cells were then incubated with the indicated concentration of ligand before washing in PBS/0.04% EDTA to remove any remaining surface antibody. Remaining fluorescence was then measured using flow cytometry on either a BD FACScalibur or Attune, recording 5000 gated events. […] As a control, some samples were left untreated, and “strip only” was measured as a readout of constitutive endocytosis, and this value was subtracted from the data. Vehicle control (0.1% DMSO) had no effect on internalization of receptors.
as §2

Mm_Fpr2 [12] = target: T3, Mm_Fpr2; assay: as above; assay type: cell-based; design: Emax: dose or concentration left out as unconfirmed
Method: as §5, §2

[13] = maximum proportion of competition with 10 nM K(5/6-FAM)-WKYMVm, mean, ND = no competition observed

| Molecule | Max Comp (%) (Hs_FPR2 [1]; [13]) | IC50 (Mm_Fpr1 [2]) | Max Comp (%) (Mm_Fpr1 [2]; [13]) | Emax (Hs_FPR2 [3]) | EC50 (Mm_Fpr1 [4]) | Emax (Mm_Fpr1 [4]) | EC50 (Mm_Fpr2 [5]) | Emax (Mm_Fpr2 [5]) | Emax (Hs_FPR2 [6]) | Emax (Mm_Fpr1 [7]) | EC50 (Mm_Fpr1 [7]; log of EC50, phosphorylation of ERK1/2, HEK293 stable cells, mean, ND = no pERK signal detected) | EC50 (Mm_Fpr1 [8]) | Emax (Mm_Fpr1 [8]) | EC50 (Mm_Fpr2 [9]) | Emax (Mm_Fpr2 [9]) | Emax (Hs_FPR2 [10]) | EC50 (Mm_Fpr1 [11]) | Emax (Mm_Fpr1 [11]) | Emax (Mm_Fpr2 [12]) | Kd, saturable binding (Hs_FPR2 [1]; hFPR2, initial studies (not shown)) |
| --- | --- | --- | --- | --- | --- | --- | --- | --- | --- | --- | --- | --- | --- | --- | --- | --- | --- | --- | --- | --- |
| CSCC[C@H](NC=O)C(=O)N[C@@H](CC(C)C)C(=O)N[C@@H](Cc1ccccc1)C(=O)O [fMLF, fMet-Leu-Phe] | 3.4% | 3.18 µM | 45.65% | 61.7% | 11.7 µM | 59.3% | 26.3 µM | 13.2% | 40.2% | 72.7% | 2.27 µM | 20.9 µM | 83.4% | 19.5 µM | 22.7% | 0.343% | 4.48 µM | 92.5% | 54.4% | – |
| K(5/6-FAM)-WKYMVm-NH2 (K(5/6‑FAM)WKYMV[dM]-NH2) | – | – | – | – | – | – | – | – | – | – | – | – | – | – | – | – | – | – | – | low nM range |
